What was measured:
[1] = tested on: cultured human adipocytes; assay: In vitro lipolysis assay (glycerol release) in cultured adipocytes; assay type: cell-based; conditions: for increase in lipolysis relative to negative control: glycerol in Assay Buffer
Method: In the in vitro lipolysis assay, glycerol was detected in cell culture media via a spectrophotometric measurement after chemical oxidation with hydrogen peroxide. Glycerol was measured over a three hour time period. Levels of lipolysis in cultured human adipocytes were tested after exposure to a beta agonist alone, a glucocorticosteroid alone, or the combination of the two for one or more preincubation periods as described in more detail below.
Human subcutaneous adipocytes were used in the lipolysis assay. Adipose tissue was harvested from liposuction or lipectomy and pre-adipocytes were isolated as follows. Briefly, fat tissue was minced and incubated at 37° C. in Krebs-Ringer bicarbonate buffer containing 1% bovine serum albumin and 0.1% collagenase in an oxygen-rich shaking chamber (5% CO2; 75 strokes/min) for 1 hour. The suspension was filtered through a 400 tim nylon mesh and centrifuged for 1 mm at 100 g. The pre-adipocytes in the […] were washed twice with and then plated in 96 well plates at a density of cells/well. The pre-adipocytes were cultured in maintenance medium for seven days as they differentiated into adipocytes.
At −21 hours before the lipolysis assay, medium was removed from each well and replaced with 75 μl of Maintenance Medium containing appropriate drug or DMSO (vehicle) concentrations (see Experimental Design section below). Each test drug or control treatment was applied to 8 wells/group (12 treatment groups per 96-well plate). At −3 hours prior to the lipolysis assay, each well was washed two times with Wash Buffer (200 μl/wash), filled with test or control solutions made up in Assay Buffer (75 μl/well), and then incubated for three hours, i.e., until measurement of glycerol content in the Assay Buffer. For some groups, a drug was only added for the three hour incubation period (see Experimental and Control Groups Below).
The glycerol content of the Assay Buffer from each well following the incubation was used as an index for lipolysis, where an increase in glycerol indicated lipolysis. Glycerol levels were assayed colorimetrically via a commercial glycerol assay kit (Randox Laboratory, United Kingdom) and quantified by comparison to a glycerol serial dilution standard curve (3 μM-200 μM). Glycerol concentrations for each well were normalized to cell density.
In each of the following control or experimental groups n=8 corresponding to the glycerol measurements for 8 wells from a 96-well cell culture plate.

[2] = compared with albuterol 5, a short acting hydrophilic beta agonist; cited from earlier work
[3] = 18 hour incubation, Salmeterol 10^−6 M or 10^−8 M, Budesonide 10^−6 M, Isoproterenol 10^−6 M
[4] = three hour incubation, isoproterenol 10^−6 M

Compound: CC(C)NCC(O)c1ccc(O)c(O)c1 (stereo not shown) [Isoproterenol, isoproterenol]
- effect on lipolysis in cultured adipocytes [1, 3]: decreased lipolysis
- increase in lipolysis relative to negative control [1, 4]: about 2.5 fold

Compound: OCc1cc(C(O)CNCCCCCCOCCCCc2ccccc2)ccc1O (racemic) [Salmeterol, ±2-(hydroxymethyl)-4-[1-hydroxy-2-[6-(4-phenylbutoxy)hexylamino]ethyl]-phenol]
- lipophilicity relative to albuterol [2]: at least 10,000 times

Compound: budesonide
- effect on lipolysis in cultured adipocytes [1, 3]: slight suppression of lipolysis
- effect on lipolysis in cultured adipocytes ([1]; three hour incubation): dose-dependent induction of lipolysis
- increase in lipolysis relative to negative control [1, 4]: up to 1.5 fold
- lipolysis compared with isoproterenol (positive control) [1, 4]: lower than that observed for Isoproterenol

From patent US20100119609A1, “METHODS, COMPOSITIONS, AND FORMULATIONS FOR THE TREATMENT OF THYROID EYE DISEASE” (priority 2006, published 2010)
